Data as given in paper PMC10396955, “2-Oxabicyclo[2.1.1]hexanes as saturated bioisosteres of the ortho-substituted phenyl ring” (Nature Chemistry, 2023).

How the values were obtained:
[1] = physchem; format: physicochemical; conditions: for D (partition ratio), incubation 1 / D (partition ratio), incubation 2 / D (partition ratio), incubation 3: Table S2, n-octanol/PBS pH 7.4
[2] = tested on: Fusarium oxysporum; assay: Antifungal activity, agar well diffusion method; format: cell-based; conditions: for zone of inhibition at 3.9 µg/mL / zone of inhibition at […] / zone of inhibition at 15.6 µg/mL / zone of inhibition at 31.25 µg/mL / zone of inhibition at 62.5 µg/mL / zone of inhibition at 125 µg/mL / zone of inhibition at 250 µg/mL / zone of inhibition at 500 µg/mL / zone of inhibition at 1000 µg/mL: Fusarium oxysporum, zones st (static growth), read-out: Diameter of inhibition zone; for zone of inhibition at 3.9 µg/mL: 0.0039 mg/mL; for zone of inhibition at […]: 0.0078 mg/mL; for zone of inhibition at 15.6 µg/mL: 0.0156 mg/mL; for zone of inhibition at 31.25 µg/mL: 0.03125 mg/mL; for zone of inhibition at 62.5 µg/mL: 0.0625 mg/mL; for zone of inhibition at 125 µg/mL: 0.125 mg/mL; for zone of inhibition at 250 µg/mL: 0.25 mg/mL; for zone of inhibition at 500 µg/mL: 0.5 mg/mL; for zone of inhibition at 1000 µg/mL: 1 mg/mL, 40 µl per well, 25 °C, 72 h; for lowest inhibition concentration: agar well diffusion, tested 0.0039-1.0 mg/mL
From the text: (§1) The agar well diffusion method is widely used to evaluate the antimicrobial activity of different substances (S. Magaldi, S. Mata-Essayag, C. Hartung de Capriles, et al. Well diffusion for antifungal susceptibility testing, Int. J. Infect. Dis. 8, 2004 , 39–45; C. Valgas, S. M. De Souza, E. F. A. Smânia, et al. Screening methods to determine antibacterial activity of natural products. Braz. J. Microbiol. 38 , 2007 , 369–380). Similarly to the procedure used in a disk-diffusion method, the agar plate surface is inoculated by spreading a volume of the microbial inoculum over the entire agar surface. Then, a hole with a diameter of 6 to 8 mm is punched aseptically with a sterile cork borer or a tip, and a volume […] of the antimicrobial agent or extract solution at desired concentration is introduced into the well. Then, agar plates are incubated under suitable conditions depending upon the test microorganism. The antimicrobial agent diffuses in the agar medium and inhibits the growth of the microbial strain tested (M. Balouiri, M. Sadiki, S. K. Ibnsouda. Methods for in vitro evaluating […]
(§2) Agar well diffusion method is a qualitative method used to measure the ability of compounds to inhibit microbial growth. This test is a quick and easy way to measure and compare levels of inhibitory […]
(§3) Antifungal activity of the synthetic compounds using agar well diffusion The compunds were tested towards plant pathogens Fusarium oxysporum Schltdl. and F. verticillioides (Sacc.) Nirenberg isolated from crops. Antifungal activity of the synthetic compounds was evaluated with using of an agar well diffusion method based on a disk diffusion assay for testing filamentous fungi (CLSI M51-A) [CLSI. Method for Antifungal Disk Diffusion Susceptibility Testing of Nondermatophyte Filamentous Fungi; Approved Guideline.CLSI document M51-A. Wayne, PA:
(§4) Clinical and Laboratory Standards Institute; 2010. This method is standardized for Altenaria , Aspergillus, Bipolaris , Fusarium , order Mucorales etc.
(§5) Preparation of synthetic compounds for mycological assay
(§6) Solutions of fungicides and its analogs were diluted in dimethyl sulfoxide (DMSO) to produce the […]
(§7) Antifungal well diffusion method
(§8) The fungal strains were cultured on potato dextrose agar slants (PDA, Eur. Pharm.) and incubated at 25 °C for 5 days. Sterile distilled water was used to cover and resuspend the colonies. Suspension of […]
(§9) conidia was adjusted to inoculums 5×10^6 conidia/mL. The suspension was further diluted in warm PDA 1:10 to obtain final working inoculums 5×10^5 conidia/mL.
(§10) Polypropylene cylinders (d, 5 mm) were placed on the surface and wells punched in the medium were used as reservoir of the test substances in different concentrations. 40 µl of solutions containing 0.0039-1.0 mg/mL of a test compound was added into the wells.
(§11) Each compound was tested in triplicate at different concentrations. Growth control was a well with 40 µl of DMSO, which was used for test components dilution.
(§12) Plates incubated at 25 °C for 72 h. The test compounds at known concentration into contact with an inoculated medium then exerts a growth-inhibiting effect then a clear zone (the zone of inhibition) appears around the test product. Diameter of a clear zone around the well is measured at the end of the incubation period in millimeters. If the fungal strain is susceptible to the antifungal agent, then a zone of inhibition appears on the agar plate. If it is resistant to the test compound, then no zone is evident.
(§13) The size of the zone of inhibition is usually related to the level of antifungal activity present in the […]
(§14) The growth rate of Fusarium oxysporum and F. verticillioides for each well was determined visually and compared with the growth of control.
(§15) As shown in the table the antifungal activity of the 6 compounds, - Fluxapyroxad, compound 28, compound 29, Boscalid, compound 30, compound 31, - were tested against plant pathogenic fungal […]
(§16) toward Fusarium oxysporum (Table S5, Figure S16). Inhibition zones of all compounds characterized […]

[3] = tested on: Fusarium verticillioides; assay: Antifungal activity, agar well diffusion method; format: cell-based; conditions: for zone of inhibition at 3.9 µg/mL / zone of inhibition at […] / zone of inhibition at 15.6 µg/mL / zone of inhibition at 31.25 µg/mL / zone of inhibition at 62.5 µg/mL / zone of inhibition at 125 µg/mL / zone of inhibition at 250 µg/mL / zone of inhibition at 500 µg/mL / zone of inhibition at 1000 µg/mL: Fusarium verticillioides, 0 = absence of antifungal activity, read-out: Diameter of inhibition zone; for zone of inhibition at 3.9 µg/mL: 0.0039 mg/mL; for zone of inhibition at […]: 0.0078 mg/mL; for zone of inhibition at 15.6 µg/mL: 0.0156 mg/mL; for zone of inhibition at 31.25 µg/mL: 0.03125 mg/mL; for zone of inhibition at 62.5 µg/mL: 0.0625 mg/mL; for zone of inhibition at 125 µg/mL: 0.125 mg/mL; for zone of inhibition at 250 µg/mL: 0.25 mg/mL; for zone of inhibition at 500 µg/mL: 0.5 mg/mL; for zone of inhibition at 1000 µg/mL: 1 mg/mL, 40 µl per well, 25 °C, 72 h
From the text: as §1, §2, §3, §4, §5, §6, §7, §8, §9, §10, §11, §12, §13, §14, §15, §16

[4] = pH 7.4, LogD, pH 7.4, incubation 1
[5] = pH 7.4, LogD, pH 7.4, incubation 2
[6] = pH 7.4, LogD, pH 7.4, incubation 3

Compound	D (partition ratio), incubation 1 [1]	D (partition ratio), incubation 2 [1]	D (partition ratio), incubation 3 [1]	logD at 1 h ([1]; pH 7.4, LogD, pH 7.4 (mean))	logD at 1 h [1, 4]	logD at 1 h [1, 5]	logD at 1 h [1, 6]	logD at 1 h ([1]; pH 7.4, logD (7.4))	zone of inhibition at 3.9 µg/mL [2] [mm]	zone of inhibition at […] [2] [mm]	zone of inhibition at 15.6 µg/mL [2] [mm]	zone of inhibition at 31.25 µg/mL [2] [mm]	zone of inhibition at 62.5 µg/mL [2] [mm]	zone of inhibition at 125 µg/mL [2] [mm]	zone of inhibition at 250 µg/mL [2] [mm]	zone of inhibition at 500 µg/mL [2] [mm]	zone of inhibition at 1000 µg/mL [2] [mm]	lowest inhibition concentration [2] [mg/mL]	zone of inhibition at 3.9 µg/mL [3] [mm]	zone of inhibition at […] [3] [mm]	further results
O=C(N[C@@H]1[C@H]2C[C@]1(c1ccc(Cl)cc1)CO2)c1cccnc1Cl (relative stereo) [Compound 31]	3.05E+03	3.16E+03	3.13E+03	3.5	3.48	3.5	3.5	2.7 ± 0.2	8 ± 0.6	9 ± 0.6	14 ± 1	16 ± 1	18 ± 0.6	19 ± 1	18 ± 1	21 ± 1	25 ± 0.6	0.0039	0	0	zone of inhibition at 15.6 µg/mL [3]: 0 mm; zone of inhibition at 31.25 µg/mL [3]: 0 mm; zone of inhibition at 62.5 µg/mL [3]: 0 mm; zone of inhibition at 125 µg/mL [3]: 10 ± 0.6 mm; zone of inhibition at 250 µg/mL [3]: 16 ± 1.2 mm; zone of inhibition at 500 µg/mL [3]: 23 ± 1.5 mm; zone of inhibition at 1000 µg/mL [3]: 29 ± 1.2 mm
O=C(Nc1ccccc1-c1ccc(Cl)cc1)c1cccnc1Cl [Boscalid, reference compound]	3.62E+03	2.86E+03	4.07E+03	3.55	3.56	3.46	3.61	3.6	9 ± 0.6	9 ± 1.7	11 ± 1.5	12 ± 1.7	24 ± 1	25	30	31 ± 1.2	39 ± 0.6	0.0039	0	11 ± 1	zone of inhibition at 15.6 µg/mL [3]: 24 ± 1.5 mm; zone of inhibition at 31.25 µg/mL [3]: 28 ± 1 mm; zone of inhibition at 62.5 µg/mL [3]: 30 ± 0.6 mm; zone of inhibition at 250 µg/mL [3]: 39 ± 0.6 mm; zone of inhibition at 500 µg/mL [3]: 40 ± 0.6 mm; zone of inhibition at 1000 µg/mL [3]: 44 ± 1.2 mm; lowest inhibition concentration ([3]; agar well diffusion, tested 0.0039-1.0 mg/mL): 0.0078 mg/mL
Cn1cc(C(=O)Nc2ccccc2-c2cc(F)c(F)c(F)c2)c(C(F)F)n1 [Fluxapyroxad, reference compound]	3.37E+03	2.99E+03	3.24E+03	3.51	3.53	3.48	3.51	3.5	14 ± 1.2	17 ± 1.2	22 ± 1.7	28 ± 1.5	30 ± 0.6	33 ± 1	35 ± 0.6	38 ± 1.5	43 ± 1.53	< 0.0039	19 ± 0.6	26 ± 1.2	zone of inhibition at 15.6 µg/mL [3]: 30 ± 1.5 mm; zone of inhibition at 31.25 µg/mL [3]: 33 ± 0.6 mm; zone of inhibition at 62.5 µg/mL [3]: 34 ± 1.2 mm; zone of inhibition at 125 µg/mL [3]: 36 ± 0.6 mm; zone of inhibition at 250 µg/mL [3]: 40 ± 1 mm; zone of inhibition at 500 µg/mL [3]: 49 ± 1.2 mm; zone of inhibition at 1000 µg/mL [3]: 56 ± 1.7 mm
